This is an account of results in BindingDB's records for doi:10.1016/s0960-894x(02)00004-5 (Keio University, 2002).

Experiment [1] has as its target alpha-L-fucosidase (Bos taurus). Description: The compound was tested for the inhibitory activity against alpha-L-Fucosidase in bovine kidney.
Experiment [2] has the same target. The description is as above. The source holds these as a separate data set.

With `CC1=CC(N)C(O)C(O)C1O` (stereo not drawn) [6-Amino-4-methyl-cyclohex-4-ene-1,2,3-triol], the Ki in experiment [1] is 45 µM. On to `CC1CC(O)(CN)C(O)C(O)C1O` (stereo not drawn) [1-Aminomethyl-5-methyl-cyclohexane-1,2,3,4-tetraol], for which the Ki in experiment [2] is 3 µM; in experiment [1] it was 2.8 µM.
